The values below come from patent US11077097B2, “Use of aromatic ring drug in inhibiting key transcription factor of malignant melanoma” (SHANGHAI INSTITUTE OF ORGANIC CHEMISTRY, CHINESE ACADEMY OF …, priority 2017, dated 2021).

One experiment addresses T1, MITF dimer (Homo sapiens, UniProt O75030).
T1 sequence (O75030 1-526): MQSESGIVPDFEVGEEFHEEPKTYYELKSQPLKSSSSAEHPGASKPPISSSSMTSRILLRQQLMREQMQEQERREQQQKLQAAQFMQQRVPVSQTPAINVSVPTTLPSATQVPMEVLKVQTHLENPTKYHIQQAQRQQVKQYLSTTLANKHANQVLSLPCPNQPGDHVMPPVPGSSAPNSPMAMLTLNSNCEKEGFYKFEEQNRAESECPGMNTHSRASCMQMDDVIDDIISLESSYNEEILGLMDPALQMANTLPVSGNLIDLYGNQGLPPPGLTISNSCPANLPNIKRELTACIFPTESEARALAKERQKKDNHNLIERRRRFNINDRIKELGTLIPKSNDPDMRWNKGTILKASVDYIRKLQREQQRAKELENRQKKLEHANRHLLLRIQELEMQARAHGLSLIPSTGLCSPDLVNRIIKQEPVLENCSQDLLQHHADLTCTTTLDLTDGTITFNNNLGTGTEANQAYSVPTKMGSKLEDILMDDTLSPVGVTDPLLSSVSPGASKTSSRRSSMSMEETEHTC
The experiment is described as follows: AlphaScreen high-throughput screening model MIDAS (MITF Dependent Alpha-Screen), MITF dimer formation. The note with it: read-out: IC50 of inhibiting formation of MITF dimer. The experiment is classed as binding. The text has this: In the AlphaScreen high-throughput screening model MIDAS (MITF Dependent Alpha-Screen), MITF was labeled with a Biotin tag recognized by Alpha donor beads and a His tag recognized by Alpha receptor beads, respectively. When MITF formed a dimer, Alpha Donor beads and Alpha Receptor beads were pulled close to each other and detected by 680 nm excitation light and 520-620 nm emission light, thereby monitoring the formation of MITF dimer.
(In general: Alpha assays give light when donor and acceptor beads are brought close together.)

A further experiment deals with melanin formation. The experiment is described as follows: Forskolin-induced melanin production. The experiment is classed as cell-based. The text has this:
MITF regulated the transcription and expression of melanin synthase TYR, TYRP1, and is the main regulatory factor of melanin formation. Foskolin, a small molecule compound, could regulate pathway, promote the expression of MITF, and promote melanin production by activating MSH-cAMP-CREB.

Experiment [1] relates to MITF landmark downstream genes-TYR and TRPM1. Put plainly: Fluorescent quantitative RT-PCR of MITF downstream genes in B16F10 cells. The experiment is classed as cell-based. Particulars: Mus musculus, B16-F10, B16F10 cell line, read-out: IC50 of inhibiting mRNA levels of TYR and TRPM1. On the procedure:
TT-012 was incubated with melanoma cell B16F10 cell line, mRNA was extracted and reverse transcripted, and the transcription of MITF landmark downstream genes-TYR (tyrosinase) and TRPM1 (transient receptor potential cation channel M1) were detected by fluorescent quantitative PCR.

A further experiment relates to Hela cells. Put plainly: MTT cell activity, control cell line Hela. The experiment is classed as cell-based. Here is the method:
(§1) The active TT012 was incubated with MITF-dependent and highly expressed melanoma cell line B16F10, the melanoma cell line A375 with low expression of MITF, and control cell line Hela, respectively, and cell activity was detected by MTT experiment.

For another experiment, the target named is LysRS-p38 interaction (Homo sapiens, UniProt Q13155+Q15046). The experiment is described as follows: AlphaScreen control test, LysRS-p38 interaction. The experiment is classed as binding.
Another experiment relates to B16F10 cells. Put plainly: MTT cell activity, MITF-dependent melanoma cell line B16F10. Particulars: Mus musculus, B16-F10, MITF-dependent and highly expressed, read-out: IC50 of inhibiting growth of B16F10 cells. The experiment is classed as cell-based. On the procedure: as §1
The test system of another experiment is A375 cells. The experiment is described as follows: MTT cell activity, melanoma cell line A375 with low expression of MITF. The experiment is classed as cell-based. Here is the method:
as §1

Sequence of LysRS-p38 interaction (Q15046 whole entry): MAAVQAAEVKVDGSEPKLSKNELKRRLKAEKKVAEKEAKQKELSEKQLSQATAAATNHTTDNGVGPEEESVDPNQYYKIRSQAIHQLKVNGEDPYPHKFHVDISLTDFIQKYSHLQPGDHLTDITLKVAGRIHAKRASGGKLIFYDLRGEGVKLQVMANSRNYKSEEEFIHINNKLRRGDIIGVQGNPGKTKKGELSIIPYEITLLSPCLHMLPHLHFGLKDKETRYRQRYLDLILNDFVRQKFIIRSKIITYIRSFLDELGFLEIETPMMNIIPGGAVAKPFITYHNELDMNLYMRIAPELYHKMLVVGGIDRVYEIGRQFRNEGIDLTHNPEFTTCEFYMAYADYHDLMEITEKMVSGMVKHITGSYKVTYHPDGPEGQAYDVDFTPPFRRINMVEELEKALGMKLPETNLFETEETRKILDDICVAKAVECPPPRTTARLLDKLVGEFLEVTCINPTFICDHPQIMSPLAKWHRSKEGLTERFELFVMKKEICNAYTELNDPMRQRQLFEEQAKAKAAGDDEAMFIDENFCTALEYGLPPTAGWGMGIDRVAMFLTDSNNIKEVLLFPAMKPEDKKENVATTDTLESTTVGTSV
Sequence of LysRS-p38 interaction (Q13155 whole entry): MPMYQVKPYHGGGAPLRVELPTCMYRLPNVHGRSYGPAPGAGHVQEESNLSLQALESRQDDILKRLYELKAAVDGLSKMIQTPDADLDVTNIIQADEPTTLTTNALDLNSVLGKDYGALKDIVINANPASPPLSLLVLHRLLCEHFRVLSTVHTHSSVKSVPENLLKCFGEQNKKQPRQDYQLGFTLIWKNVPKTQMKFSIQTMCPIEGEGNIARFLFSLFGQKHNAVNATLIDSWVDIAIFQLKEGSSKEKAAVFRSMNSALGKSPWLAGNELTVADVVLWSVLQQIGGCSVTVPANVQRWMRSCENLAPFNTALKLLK

As for `O=C(/C=C/c1ccco1)Nc1cccc(NC(=O)/C=C/c2ccco2)n1` [TT-012], the 50% inhibitory concentration (IC50) (as a rule, the concentration that inhibits the measured activity by half) came out at 10 nM at MITF dimer, 2000 nM in experiment [1] and 300 nM in the experiment with B16F10 cells. Further, the “inhibition of melanin formation” value in the experiment on melanin formation is “effectively inhibit”. Further, the “killing effect on control cells HELA” value in the experiment with Hela cells is “no killing effects”. For the same compound, at LysRS-p38 interaction, the “effect on AlphaScreen signal of LysRS-p38 interaction” value is reported as “not affect”. Also, the “killing effect on A375 cells” value in the experiment with A375 cells was “no killing effects”.
